Broadly, the IC50 is the concentration that inhibits the measured activity by half. The term EC50 denotes the midpoint of the concentration-response curve.

Calls of active or inactive are those of the source. No cut-off for these calls is given here.

Test [1] has as its system B16-F10. Briefly: Cytotoxicity against mouse B16F10 cells assessed as decrease in cell viability incubated for 24 hrs by MTT assay. Format: functional, cell-based. The following applies: B16-F10, 24 h.
Test [2] is described as follows: Selectivity index, ratio of IC50 for human T75 cells to IC50 for human A2058 cells.
In test [3] the test system is A2058. Description: Cytotoxicity against human A2058 cells assessed as decrease in cell viability incubated for 24 hrs by MTT assay. The class given is functional, cell-based. The note with it: A2058, 24 h.
A further test relates to U-87 MG. Description: Cytotoxicity against human U87 cells assessed as decrease in cell viability incubated for 24 hrs by MTT assay. Format: functional, cell-based, U-87MG ATCC. In general terms: Tetrazolium assays rely on reduction of a dye to a coloured formazan, in cell work by metabolically active cells.
Test [4] in a line: Cytotoxicity against human T75 cells assessed as decrease in cell viability incubated for 24 hrs by MTT assay. Format: cell-based.
A further test relates to HeLa. Briefly: Cytotoxicity against human HeLa cells assessed as decrease in cell viability incubated for 24 hrs by MTT assay. The class given is functional, cell-based.
Another test has as its system SK-MEL-25. Briefly: Cytotoxicity against human SK-MEL-25 cells assessed as decrease in cell viability incubated for 24 hrs by MTT assay. Format: functional, cell-based. The following applies: SK-MEL-25, 24 h.
The subject of the next test is MCF7. Briefly: Cytotoxicity against human MCF7 cells assessed as decrease in cell viability incubated for 24 hrs by MTT assay. The class given is functional, cell-based.
In another test the test system is HEK-293T. Briefly: Effect on Ca2+ transport in human HEK293T cells incubated for 5 mins by calcium-5 fluorescence dye-based FLIPR assay. The class given is functional, cell-based.
Another test deals with Mus musculus. Description: In-vivo activation of TRPV1 receptor in Swiss mouse assessed as induction of nociception by measuring paw flinching/licking response at 5.2 nmol/paw administrated via intraplantar route and measured for first 5 mins post treatment. Format: functional, organism-based.
Test [5] has as its target T1, Transient receptor potential cation channel subfamily V member 6 (Homo sapiens) (UniProt Q9H1D0).
T1 sequence (whole entry): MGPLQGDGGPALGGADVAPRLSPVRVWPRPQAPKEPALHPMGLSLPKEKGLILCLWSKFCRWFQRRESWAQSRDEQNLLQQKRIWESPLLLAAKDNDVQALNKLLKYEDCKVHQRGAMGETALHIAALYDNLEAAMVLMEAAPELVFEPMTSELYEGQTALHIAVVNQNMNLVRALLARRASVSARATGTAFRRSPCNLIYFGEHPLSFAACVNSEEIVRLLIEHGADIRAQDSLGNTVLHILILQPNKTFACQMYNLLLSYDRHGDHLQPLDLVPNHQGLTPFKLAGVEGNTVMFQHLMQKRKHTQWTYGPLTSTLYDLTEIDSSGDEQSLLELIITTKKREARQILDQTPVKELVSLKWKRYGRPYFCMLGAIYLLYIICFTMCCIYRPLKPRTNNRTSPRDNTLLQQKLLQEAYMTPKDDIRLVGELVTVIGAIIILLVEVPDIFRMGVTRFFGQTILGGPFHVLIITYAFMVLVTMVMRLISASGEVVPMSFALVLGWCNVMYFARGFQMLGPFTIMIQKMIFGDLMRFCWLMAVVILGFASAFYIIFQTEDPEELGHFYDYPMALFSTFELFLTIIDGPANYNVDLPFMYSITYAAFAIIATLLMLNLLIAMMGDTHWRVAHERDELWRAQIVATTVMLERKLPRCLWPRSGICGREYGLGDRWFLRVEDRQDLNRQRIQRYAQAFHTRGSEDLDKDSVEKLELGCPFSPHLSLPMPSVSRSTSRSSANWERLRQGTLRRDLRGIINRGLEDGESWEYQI
Description: Agonist activity at human TRPV6 expressed in human HEK293 cells assessed as increase in Ca2+ transport at 100 nM incubated for 5 mins by calcium-5 fluorescence dye-based FLIPR assay. The class given is cell-based.

Test [6] concerns the target T1, Transient receptor potential cation channel subfamily V member 6 (Homo sapiens). Description: Antagonist activity at human TRPV6 expressed in human HEK293 cells assessed as reduction in Ca2+ transport at 2.5 uM incubated for 5 mins by calcium-5 fluorescence dye-based FLIPR assay. Format: cell-based.
In test [7] the test system is A2058. Briefly: Induction of apoptosis in human A2058 cells assessed as ratio of beta-actin to BCL-XL expression incubated for 6 hrs by Western blot analysis. Format: functional. In general terms: In western blotting, separated proteins are transferred to a membrane and probed.
In test [8] the test system is B16-F10. Description: Cell cycle arrest in mouse B16F10 cells assessed as variation in subG0/G1 population at 12.5 to 50 uM incubated for 24 hrs by propidium iodide staining-based flow cytometric analysis. Format: functional. For orientation: Flow cytometry measures light scatter and fluorescence of single cells or particles in a stream.
Test [9] concerns A2058. Briefly: Induction of apoptosis in human A2058 cells assessed as ratio of beta-actin to C-RAF expression incubated for 6 hrs by Western blot analysis. Format: functional.
Test [10] concerns B16-F10. Briefly: Cell cycle arrest in mouse B16F10 cells assessed as increase the G0/G1 phase incubated for 24 hrs by propidium iodide staining-based flow cytometric analysis. Format: functional.
For test [11], the system named is A2058. Briefly: Induction of apoptosis in human A2058 cells assessed as ratio of beta-actin to C-RAF expression incubated for 3 hrs by Western blot analysis. Format: functional.
Test [12] has as its system A2058. Briefly: Induction of apoptosis in human A2058 cells assessed as ratio of beta-actin to caspase 3 expression incubated for 1 hrs by Western blot analysis. Format: functional.
Test [13] concerns A2058. Description: Induction of apoptosis in human A2058 cells assessed as ratio of beta-actin to B-RAF expression incubated for 1 hrs by Western blot analysis. The class given is functional.
In test [14] the test system is A2058. Briefly: Cell cycle arrest in human A2058 cells assessed as accumulation of cells in G0/G1 phase incubated for 24 hrs by propidium iodide staining-based flow cytometric analysis. The class given is functional.
The test system of test [15] is A2058. Briefly: Induction of apoptosis in human A2058 cells assessed as ratio of beta-actin to C-RAF expression incubated for 1 hrs by Western blot analysis. Format: functional.
The subject of test [16] is A2058. Description: Induction of apoptosis in human A2058 cells assessed as ratio of beta-actin to BCL-XL expression incubated for 3 hrs by Western blot analysis. The class given is functional.
For test [17], the target named is T2, Transient receptor potential cation channel subfamily V member 1 (Homo sapiens, UniProt Q8NER1). Description: Agonist activity at human TRPV1 expressed in human HEK293T cells assessed as increase in Ca2+ transport at 10 uM incubated for 5 mins in presence of TRPV1 antagonist capsazepine by calcium-5 fluorescence dye-based FLIPR assay. Format: cell-based.
T2 sequence (Q8NER1 whole entry): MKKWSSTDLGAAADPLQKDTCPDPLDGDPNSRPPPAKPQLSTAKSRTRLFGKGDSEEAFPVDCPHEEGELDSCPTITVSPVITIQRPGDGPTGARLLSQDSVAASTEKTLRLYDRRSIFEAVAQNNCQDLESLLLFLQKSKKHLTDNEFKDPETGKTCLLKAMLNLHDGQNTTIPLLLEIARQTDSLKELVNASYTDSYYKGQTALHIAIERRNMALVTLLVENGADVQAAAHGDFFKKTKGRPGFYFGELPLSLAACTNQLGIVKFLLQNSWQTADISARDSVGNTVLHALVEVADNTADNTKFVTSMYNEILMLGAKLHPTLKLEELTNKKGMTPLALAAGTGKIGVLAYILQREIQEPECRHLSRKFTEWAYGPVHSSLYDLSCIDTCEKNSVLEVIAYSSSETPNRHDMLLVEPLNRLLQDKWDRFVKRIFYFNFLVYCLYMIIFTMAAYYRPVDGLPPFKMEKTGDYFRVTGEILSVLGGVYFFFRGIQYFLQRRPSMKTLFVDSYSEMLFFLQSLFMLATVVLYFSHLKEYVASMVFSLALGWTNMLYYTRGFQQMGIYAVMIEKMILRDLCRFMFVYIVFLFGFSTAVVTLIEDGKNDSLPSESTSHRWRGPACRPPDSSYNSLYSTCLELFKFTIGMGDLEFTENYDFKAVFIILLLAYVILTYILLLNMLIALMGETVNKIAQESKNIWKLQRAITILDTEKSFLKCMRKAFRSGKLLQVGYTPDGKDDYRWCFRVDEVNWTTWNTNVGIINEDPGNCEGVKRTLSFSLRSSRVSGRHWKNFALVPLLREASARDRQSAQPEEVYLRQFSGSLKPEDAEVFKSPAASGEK
Test [18] has as its system A2058. Description: Induction of apoptosis in human A2058 cells assessed as ratio of beta-actin to caspase 3 expression incubated for 6 hrs by Western blot analysis. Format: functional.
The test system of test [19] is A2058. Briefly: Cell cycle arrest in human A2058 cells assessed as accumulation of cells in subG0/G1 phase at 12.5 to 50 uM incubated for 24 hrs by propidium iodide staining-based flow cytometric analysis. The class given is functional.
For test [20], the system named is A2058. Description: Induction of apoptosis in human A2058 cells assessed as ratio of beta-actin to BCL-XL expression incubated for 1 hrs by Western blot analysis. Format: functional.
Test [21] relates to A2058. Briefly: Induction of apoptosis in human A2058 cells assessed as ratio of beta-actin to B-RAF expression incubated for 6 hrs by Western blot analysis. The class given is functional.
In test [22] the test system is A2058. Briefly: Cytotoxicity against human A2058 cells assessed as loss of cell adhesion incubated for 24 hrs by microscopic method. Format: functional, cell-based.
The target in test [23] is T2, Transient receptor potential cation channel subfamily V member 1. Briefly: Agonist activity at human TRPV1 expressed in HEK293T cells assessed as increase in Ca2+ transport incubated for 5 mins by calcium-5 fluorescence dye-based FLIPR assay. Format: cell-based.
For test [24], the system named is A2058. Description: Induction of apoptosis in human A2058 cells assessed as increase in cleaved caspase 3 expression level incubated for 6 hrs by Western blot analysis. The class given is functional, cell-based.
The subject of test [25] is A2058. Description: Cytotoxicity against human A2058 cells assessed as loss of refringence incubated for 24 hrs by microscopic method. Format: functional, cell-based.
Test [26] addresses T1, Transient receptor potential cation channel subfamily V member 6 (Homo sapiens). Description: Agonist activity at human TRPV6 expressed in human HEK293 cells assessed as increase in Ca2+ transport at 50 uM incubated for 5 mins by calcium-5 fluorescence dye-based FLIPR assay. Format: cell-based.
Test [27] relates to A2058. Briefly: Cytotoxicity against human A2058 cells assessed as alteration in cell morphology incubated for 24 hrs by microscopic method. Format: functional, cell-based.
For test [28], the system named is A2058. Description: Cytotoxicity against human A2058 cells assessed as marked formation of apoptotic bodies incubated for 24 hrs by microscopic method. Format: functional, cell-based.
Test [29] concerns A2058. Briefly: Induction of apoptosis in human A2058 cells assessed as ratio of beta-actin to B-RAF expression incubated for 3 hrs by Western blot analysis. Format: functional.
Test [30] has as its system B16-F10. Description: Cytotoxicity against mouse B16F10 cells assessed as cell cycle arrest incubated for 24 hrs by microscopic method. Format: functional, cell-based.
For test [31], the system named is A2058. Description: Induction of apoptosis in human A2058 cells assessed as ratio of beta-actin to caspase 3 expression incubated for 3 hrs by Western blot analysis. The class given is functional.
Test [32] relates to A2058. Description: Cytotoxicity against human A2058 cells assessed as induction of withdrawal of cytoplasm incubated for 24 hrs by microscopic method. The class given is functional, cell-based.

For `COc1cc(CNC(=O)Nc2ccc([N+](=O)[O-])cc2)ccc1O`, the IC50 was more than 100 µM in the test with B16-F10 [1]; 98.2 µM in the test with A2058 [3]; 98.5 µM in the test with U-87 MG; more than 100 µM in [4]; 98.7 µM in the test with SK-MEL-25. Further, the “Ratio IC50” value in test [2] was more than 1.1. In addition, the outcome with HeLa and in the test on MCF7 was inactive.

`COc1ccc(NC(=O)NCc2ccc(O)c(OC)c2)cc1`: the IC50 in the test with B16-F10 [1] was more than 100 µM; in the test on A2058 [3], 92.5 µM; in the test on U-87 MG, more than 100 µM; in [4], more than 100 µM; in the test on SK-MEL-25 it was 91.8 µM. In addition, the “Ratio IC50” value in test [2] is more than 1.08. The outcome with HeLa and in the test with MCF7 was inactive.

On to `COc1cc(CNC(=O)Nc2ccc(Cl)cc2)ccc1O`, for which the IC50 in the test with B16-F10 [1] is more than 100 µM; with A2058 [3], 84.5 µM; in the test on U-87 MG, 92.5 µM; in test [4] it was more than 100 µM; with SK-MEL-25, 90.5 µM. Also, in test [2], the “Ratio IC50” value is listed as more than 1.18. The result with HeLa and in the test on MCF7 was inactive.

Take `COc1cc(CNC(=O)CCCC/C=C/C(C)C)ccc1O` [CAPSAICIN]: the IC50 (in the test on B16-F10 [1]; with A2058 [3]; in the test with U-87 MG; in test [4]; in the test on SK-MEL-25) was more than 100 µM in each case. The outcome (in the test with HEK-293T; in [5]) was inactive. The result in the test with Mus musculus was Active.

Regarding `Cc1cccc([C@H]2CC[C@@H](N3CCN(c4cccnc4)CC3)CC2)c1`, the inhibition result in [6] is “Active”.

In the case of `CCCCCCNC(=S)NCc1ccc2c(c1)OCO2`, the Ratio with A2058 [7] is given as 0.6; in the test on A2058 [9] it was 0.32; with A2058 [11] it was 0.49; in the test on A2058 [12] it was 1.18; with A2058 [13], 0.45; in the test on A2058 [15] it was 0.6. The Ratio in the test on A2058 [16] stood at 1.2; with A2058 [18], 0.6; in the test on A2058 [20], 1.22; in the test on A2058 [21], 0.52; in the test on A2058 [29] it was 0.48; in the test with A2058 [31], 1.11. Also, the outcome (in the test on B16-F10 [8]; with HEK-293T; in test [17]; in the test on HeLa; in the test on Mus musculus; in the test with MCF7) was inactive. Besides, the outcome in test [26] was inactive. Further, the IC50 is more than 100 µM with B16-F10 [1]; 55.2 µM in the test with A2058 [3]; 87 µM with U-87 MG; more than 100 µM in test [4]; 67.2 µM in the test on SK-MEL-25. The “Ratio IC50” value in test [2] is recorded as more than 1.8. In addition, the Activity entry with B16-F10 [10] and with A2058 [14] was “Dose-dependent effect” in each case. In addition, the result in the test on A2058 [19], in the test on A2058 [22], in the test on A2058 [24], with A2058 [25], in the test with A2058 [27] and in the test with A2058 [28] was Active. For the same molecule, the outcome in the test on B16-F10 [30] and with A2058 [32] was Active. For the same molecule, in test [23], the EC50 is 4.62 µM.
